The procedure of data set [1]: Various pharmaceutical drug actives and prodrugs were screened to test for solubility in the compositions including alpha-hydroxy acid esters. Solubility was determined by adding various amounts of the drug to a composition including alpha-hydroxy acid esters, mixing, and then visually determining the solubility. The composition selected for the screening was Imwitor™ 380, a partially neutralized mixture of citric acid/lactic acid esters of partial glycerides. Imwitor™ 380 contains approximately 60% citric acid/lactic acid esters of partial glycerides, less than 32% 1-monoglyceride, and not more than 5% glycerol (Product Information Sheet, 26.13.199e/07.98; Sasol).
Mixtures were based on weight/weight and ranged from 5% drug/95% Imwitor™ 380 to 15% drug/85% Imwitor™ 380. The samples were prepared in 12 ml glass vials, containing a stirbar to ensure adequate mixing, and sealed with Teflon lined caps (National Scientific Co.; vial: part no B7800-12; cap: 15-425).

How the values of data set [2] were obtained:
Mixtures were based on weight/weight and ranged from 5% drug/95% unneutralized Imwitor™ 380 to 10% drug/90% unneutralized Imwitor™ 380. The samples were prepared in scintillation vials (Research Products International) containing a stirbar to ensure adequate mixing.
The source holds these as a separate data set.

Read-outs that look alike come from different tables or passages of the source.

Consider `CCOC(=O)C(C)(C)Oc1ccc(Cl)cc1` [Clofibrate, clofibrate], for which the Solubility was more than 150 mg/gm in data set [1] and more than 100 mg/gm in data set [2].
The corresponding values for `CCCC(CCC)C(=O)O` [Valproic Acid, valproic acid] are more than 150 mg/gm and more than 100 mg/gm.

Source of the values: patent publication US20040191207A1, “ALPHA-HYDROXY ACID ESTER DRUG DELIVERY COMPOSITIONS AND METHODS OF USE” (priority 2003, published 2004).
